Assay results taken from PubChem BioAssay AID256 (DTP/NCI, 2004).
Inconclusive results and toxic doses are left out. The calls were made as follows: active = survival T/C of 150% or more; inactive = T/C below 125% in these data.

Test system: CD2F1 mice, L1210 leukemia ip, survival T/C
Experiment: NCI In Vivo Anticancer Drug Screen. Data for tumor model L1210 Leukemia (intraperitoneal) in CD2F1 (CDF1) mice
Details: endpoint: mean survival time, higher = longer survival
Procedure, shortened: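 Mice carrying a transplanted tumor received test compound or vehicle alone. The value is the measurement in the treated group divided by that in the vehicle-treated control group.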

[1] = dose: 100.0 mg/kg/injection, schedule: Q04DX002 (ip), vehicle: saline with Tween-80
[2] = dose: 200.0 mg/kg/injection, schedule: Q04DX002 (ip), vehicle: saline with Tween-80
[3] = dose: 400.0 mg/kg/injection, schedule: Q04DX002 (ip), vehicle: saline with Tween-80
[4] = dose: 100.0 mg/kg/injection, schedule: Q01DX009 (ip), vehicle: saline with Tween-80
[5] = dose: 200.0 mg/kg/injection, schedule: Q01DX009 (ip), vehicle: saline with Tween-80
[6] = dose: 400.0 mg/kg/injection, schedule: Q01DX009 (ip), vehicle: saline with Tween-80
[7] = dose: 100.0 mg/kg/injection, schedule: Q04DX003 (ip), vehicle: saline with Tween-80
[8] = dose: 200.0 mg/kg/injection, schedule: Q04DX003 (ip), vehicle: saline with Tween-80
[9] = dose: 400.0 mg/kg/injection, schedule: Q04DX003 (ip), vehicle: saline with Tween-80

Measured: T/C

COc1cccc2c1C(=O)c1c(O)c3c(c(O)c1C2=O)C[C@@](O)(/C(C)=N\NC(=O)CO)C[C@@H]3OC1CC(N)C(O)C(C)O1 (stereo partly drawn)
inactive: dose: 0.25 mg/kg/injection, schedule: Q01DX009 (ip), vehicle: water 103 % of control | dose: 0.5 mg/kg/injection, schedule: Q01DX009 (ip), vehicle: water 101 % of control | dose: 0.78 mg/kg/injection, schedule: Q01DX009 (ip), vehicle: water 107 % of control | dose: 1.0 mg/kg/injection, schedule: Q01DX009 (ip), vehicle: water 98 % of control | dose: 1.0 mg/kg/injection, schedule: Q04DX003 (ip), vehicle: saline with Tween-80 115 % of control | dose: 1.56 mg/kg/injection, schedule: Q01DX009 (ip), vehicle: water 107 % of control | dose: 2.0 mg/kg/injection, schedule: Q01DX009 (ip), vehicle: water 106 % of control | dose: 2.0 mg/kg/injection, schedule: Q04DX003 (ip), vehicle: saline with Tween-80 113 % of control | dose: 3.13 mg/kg/injection, schedule: Q01DX009 (ip), vehicle: water 119 % of control | dose: 4.0 mg/kg/injection, schedule: Q01DX009 (ip), vehicle: water 111 % of control | dose: 4.0 mg/kg/injection, schedule: Q04DX003 (ip), vehicle: saline with Tween-80 117 % of control | dose: 8.33 mg/kg/injection, schedule: Q04DX003 (ip), vehicle: saline 121 % of control | dose: 12.5 mg/kg/injection, schedule: Q01DX009 (ip), vehicle: saline 101 % of control | dose: 12.5 mg/kg/injection, schedule: Q01DX009 (ip), vehicle: water 115 % of control

Cc1ccc(NC(=O)N(C)N=O)cc1
inactive: dose: 89.0 mg/kg/injection, schedule: Q01DX001 (ip), vehicle: other 89 % of control | dose: 133.0 mg/kg/injection, schedule: Q01DX001 (ip), vehicle: other 87 % of control | dose: 200.0 mg/kg/injection, schedule: Q01DX001 (ip), vehicle: other 89 % of control | dose: 300.0 mg/kg/injection, schedule: Q01DX001 (ip), vehicle: other 93 % of control

S=C(N/N=C/c1ccccn1)Nc1ccccn1
inactive: [1] 103 % of control | [2] 114 % of control | [3] 91 % of control

C=CCCCCn1c2ccccc2c2c(C)c3cnccc3c(C)c21
inactive: [4] 102 % of control | [5] 102 % of control | [6] 97 % of control

Nc1ncnc2nc(-c3ccc(Cc4ccccc4)cc3)[nH]c12
inactive: dose: 0.63 mg/kg/injection, schedule: Q01DX009 (ip), vehicle: saline 96 % of control | dose: 1.25 mg/kg/injection, schedule: Q01DX009 (ip), vehicle: saline 95 % of control | dose: 2.5 mg/kg/injection, schedule: Q01DX009 (ip), vehicle: saline 95 % of control

CCC(=O)c1cc([N+](=O)[O-])ccc1NC(C)=O
inactive: [7] 100 % of control | [8] 94 % of control | [9] 88 % of control

CCCCCCCCCCCCCCCc1cc(=O)n(-c2ccc(C(=O)OCC)cc2)n1C
inactive: [4] 92 % of control | [7] 97 % of control | [5] 86 % of control | [8] 88 % of control | [9] 100 % of control

Cc1cscc(C)c1=S
inactive: dose: 100.0 mg/kg/injection, schedule: Q04DX003 (ip), vehicle: saline sonified 98 % of control | dose: 200.0 mg/kg/injection, schedule: Q04DX003 (ip), vehicle: saline sonified 98 % of control | dose: 400.0 mg/kg/injection, schedule: Q04DX003 (ip), vehicle: saline sonified 100 % of control

O=C(c1ccccc1)C1CC2CCC1CC2 (stereo not drawn)
inactive: dose: 50.0 mg/kg/injection, schedule: Q04DX002 (ip), vehicle: saline with Tween-80 96 % of control | [1] 86 % of control | [2] 93 % of control | [3] 89 % of control

CC(=O)C(C(c1ccccc1)C1CCCc2ccccc21)N1CCOCC1 (stereo not drawn)
inactive: [4] 104 % of control | [7] 103 % of control | [5] 98 % of control | [8] 100 % of control | [6] 95 % of control | [9] 101 % of control
